Experimental data from patent US20230159532A1, “PARATHYROID HORMONE (PTH) RECEPTOR ANTAGONISTS AND USES THEREOF” (Crinetics Pharmaceuticals, Inc., priority 2021, published 2023).
pKi: −log10 of the molar value.

Target: T1, human PTHR1 receptor (Homo sapiens, UniProt Q03431)
T1 construct: purchased Eurofins HTS030M
T1 sequence (Q03431 27-593): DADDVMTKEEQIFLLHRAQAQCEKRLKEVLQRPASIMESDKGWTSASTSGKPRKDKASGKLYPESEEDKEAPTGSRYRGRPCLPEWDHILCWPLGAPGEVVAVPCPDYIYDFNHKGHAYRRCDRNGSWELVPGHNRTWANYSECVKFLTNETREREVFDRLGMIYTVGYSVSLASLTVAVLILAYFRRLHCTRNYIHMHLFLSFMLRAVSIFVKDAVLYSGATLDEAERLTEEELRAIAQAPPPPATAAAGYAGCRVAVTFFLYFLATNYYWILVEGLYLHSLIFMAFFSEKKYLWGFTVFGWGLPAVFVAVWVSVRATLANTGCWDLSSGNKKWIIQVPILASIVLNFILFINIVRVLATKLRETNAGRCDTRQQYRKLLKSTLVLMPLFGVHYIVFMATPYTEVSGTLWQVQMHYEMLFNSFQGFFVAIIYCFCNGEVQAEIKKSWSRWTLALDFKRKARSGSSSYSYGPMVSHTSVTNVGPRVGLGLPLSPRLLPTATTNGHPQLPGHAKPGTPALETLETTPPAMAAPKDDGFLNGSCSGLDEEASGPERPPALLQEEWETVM
Experiment: Competitive antagonist binding assay for hPTH-R1 (radioactive competition binding, SPA beads)
Conditions: human PTHR1 membranes, [125I]-[Nle8,18,Tyr34]-PTH(1-34) 0.2 nM, 90 minutes at room temperature; read-out: hPTHR1 Ki
Experimental: Competitive Antagonist Binding Assay Protocol for hPTH-R1 Antagonists:
The inhibition of binding to the human PTHR1 receptor was measured in a radioactive competition binding assay using the radiolabeled [^125I]-[NLE^8,18, TYR^34]-parathyroid hormone (1-34) ligand (PerkinElmer Cat# NEX244, custom synthesis) as the probe ligand for the receptor. Briefly, membranes from cells expressing the human PTHR1 (Eurofins Cat# HTS030M) were incubated with SPA beads (PerkinElmer Cat# RPNQ0001) in binding assay buffer [50 mM HEPES (Biopioneer Cat# C0113), 5 mM MgCl2 (Sigma Cat# M8266), 10 mM CaCl2 (Fisher Scientific Cat# BP510), 0.1% BSA (Fisher Scientific Cat# BP1600), 0.01% TritonX-100 (Bio-Rad Cat#161-0407), and protease inhibitors (Pierce Cat# A32963); pH 7.4]. Membranes bound to SPA bead were treated with various dilutions of compounds (final concentrations typically 0-10,000 nM), and 0.2 nM radiolabeled ligand in 96-well isoplates (PerkinElmer Cat#6005040) for 90 minutes at room temperature. The radioactive signal was detected using a MicroBetaTriLux 1450 LSC (PerkinElmer). All data manipulations to determine the Ki values were performed using GraphPad v8 (GraphPad, San Diego Calif.).

| pKi | Structure (SMILES) |
| --- | --- |
| > 7.00 | CN1C(=O)N(c2c(F)cc(NCCN[C@H]3C[C@H](O)C3)cc2F)c2cc(C#N)ccc2-c2cc(Cl)cnc21 [1-198, 4-chloro-10-{2,6-difluoro-4-[(2-{[(1r,3r)-3-hydroxycyclobutyl]amino}ethyl)amino]phenyl}-8-methyl-9-oxo-6,8,10-triazatricyclo[9.4.0.0^2,7]pentadeca-1(11),2(7),3,5,12,14-hexaene-13-carbonitrile] |
| > 7.00 | CCN1C(=O)N(c2c(F)cc(NCCNC3CCOCC3)cc2F)c2cc(Cl)ccc2-c2cc(Cl)cnc21 [1-12, 4,13-dichloro-10-[2,6-difluoro-4-({2-[(oxan-4-yl)amino]ethyl}amino)phenyl]-8-ethyl-6,8,10-triazatricyclo[9.4.0.0^2,7]pentadeca-1(11),2(7),3,5,12,14-hexaen-9-one] |
| 5.00 to 6.00 | CCN1C(=O)N(c2c(F)cc(NCCNC)cc2F)c2cc(Cl)ccc2-c2nc(C#N)ccc21 [3-16, 13-chloro-10-(2,6-difluoro-4-{[2-(methylamino)ethyl]amino}phenyl)-8-ethyl-9-oxo-3,8,10-triazatricyclo[9.4.0.0^2,7]pentadeca-1(11),2(7),3,5,12,14-hexaene-4-carbonitrile] |
| > 7.00 | CCN1C(=O)N(c2ccc(NCCNC)cc2)c2cc(Cl)ccc2-c2cc(F)cnc21 [2-4, 13-chloro-8-ethyl-4-fluoro-10-(4-{[2-(methylamino)ethyl]amino}phenyl)-6,8,10-triazatricyclo[9.4.0.0^2,7]pentadeca-1(11),2(7),3,5,12,14-hexaen-9-one] |
| > 7.00 | CCN1C(=O)N(c2c(F)cc(NCCNCCO)cc2F)c2cc(C(F)(F)F)ccc2-c2cc(F)cnc21 [1-67, 10-[2,6-difluoro-4-({2-[(2-hydroxyethyl)amino]ethyl}amino)phenyl]-8-ethyl-4-fluoro-13-(trifluoromethyl)-6,8,10-triazatricyclo[9.4.0.0^2,7]pentadeca-1(11),2(7),3,5,12,14-hexaen-9-one] |
| > 7.00 | CCN1C(=O)N(c2ccc(NCCNC)cc2)c2cc(OC)ccc2-c2cc(Cl)cnc21 [2-6, 4-chloro-8-ethyl-13-methoxy-10-(4-{[2-(methylamino)ethyl]amino}phenyl)-6,8,10-triazatricyclo[9.4.0.0^2,7]pentadeca-1(11),2(7),3,5,12,14-hexaen-9-one] |
| > 7.00 | CN1C(=O)N(c2c(F)cc(NCCNC3CCOCC3)cc2F)c2cc(Cl)ccc2-c2cc(Cl)cnc21 [1-35, 4,13-dichloro-10-[2,6-difluoro-4-({2-[(oxan-4-yl)amino]ethyl}amino)phenyl]-8-methyl-6,8,10-triazatricyclo[9.4.0.0^2,7]pentadeca-1(11),2(7),3,5,12,14-hexaen-9-one] |
| > 7.00 | CCN1C(=O)N(c2c(F)cc(NCCNCCOC(N)=O)cc2F)c2cc(C#N)ccc2-c2cc(Cl)cnc21 [1-189, 2-({2-[(4-{4-chloro-13-cyano-8-ethyl-9-oxo-6,8,10-triazatricyclo[9.4.0.0^2,7]pentadeca-1(11),2(7),3,5,12,14-hexaen-10-yl}-3,5-difluorophenyl)amino]ethyl}amino)ethyl carbamate] |
| > 7.00 | CCN1C(=O)N(c2c(F)cc(N3CCCNCC3)cc2F)c2cc(C#N)ccc2-c2cc(Cl)cnc21 [1-143, 4-chloro-10-[4-(1,4-diazepan-1-yl)-2,6-difluorophenyl]-8-ethyl-9-oxo-6,8,10-triazatricyclo[9.4.0.0^2,7]pentadeca-1(11),2(7),3,5,12,14-hexaene-13-carbonitrile] |
| > 7.00 | CCN1C(=O)N(c2c(F)cc(NCCNCCCS(=O)(=O)O)cc2F)c2cc(C#N)ccc2-c2cc(Cl)cnc21 [1-175, 3-({2-[(4-{4-chloro-13-cyano-8-ethyl-9-oxo-6,8,10-triazatricyclo[9.4.0.0^2,7]pentadeca-1(11),2(7),3,5,12,14-hexaen-10-yl}-3,5-difluorophenyl)amino]ethyl}amino)propane-1-sulfonic acid] |
| > 7.00 | CCN1C(=O)N(c2c(F)cc(NCCNC[C@H](O)c3ccccc3)cc2F)c2cc(C#N)ccc2-c2cc(Cl)cnc21 [1-230, 4-chloro-10-{2,6-difluoro-4-[(2-{[(2R)-2-hydroxy-2-phenylethyl]amino}ethyl)amino]phenyl}-8-ethyl-9-oxo-6,8,10-triazatricyclo[9.4.0.0^2,7]pentadeca-1(11),2(7),3,5,12,14-hexaene-13-carbonitrile] |
| > 7.00 | CCN1C(=O)N(c2c(F)cc(NCCNCCO)cc2F)c2cc(Cl)cc(C#N)c2-c2cc(F)cnc21 [1-134, 13-chloro-10-[2,6-difluoro-4-({2-[(2-hydroxyethyl)amino]ethyl}amino)phenyl]-8-ethyl-4-fluoro-9-oxo-6,8,10-triazatricyclo[9.4.0.0^2,7]pentadeca-1(11),2(7),3,5,12,14-hexaene-15-carbonitrile] |
| 6.00 to 7.00 | CCN1C(=O)N(c2c(F)cc(N3CCN[C@H](CO)C3)cc2F)c2cc(C#N)ccc2-c2cc(Cl)cnc21 [1-152, 4-chloro-10-{2,6-difluoro-4-[(3S)-3-(hydroxymethyl)piperazin-1-yl]phenyl}-8-ethyl-9-oxo-6,8,10-triazatricyclo[9.4.0.0^2,7]pentadeca-1(11),2(7),3,5,12,14-hexaene-13-carbonitrile] |
| > 7.00 | CCC(CO)NCCNc1cc(F)c(N2C(=O)N(CC)c3ncc(Cl)cc3-c3ccc(C#N)cc32)c(F)c1 (stereo not drawn) [1-139, 4-chloro-10-[2,6-difluoro-4-({2-[(1-hydroxybutan-2-yl)amino]ethyl}amino)phenyl]-8-ethyl-9-oxo-6,8,10-triazatricyclo[9.4.0.0^2,7]pentadeca-1(11),2(7),3,5,12,14-hexaene-13-carbonitrile] |
| > 7.00 | CCN1C(=O)N(c2c(F)cc(NCCNC)cc2F)c2cccc(C)c2-c2cc(Cl)cnc21 [1-21, 4-chloro-10-(2,6-difluoro-4-{[2-(methylamino)ethyl]amino}phenyl)-8-ethyl-15-methyl-6,8,10-triazatricyclo[9.4.0.0^2,7]pentadeca-1(11),2(7),3,5,12,14-hexaen-9-one] |
| > 7.00 | CCN1C(=O)N(c2c(F)cc(N3CC[C@H](NC)C3)cc2F)c2cc(C#N)ccc2-c2cc(Cl)cnc21 [1-235, 4-chloro-10-{2,6-difluoro-4-[(3S)-3-(methylamino)pyrrolidin-1-yl]phenyl}-8-ethyl-9-oxo-6,8,10-triazatricyclo[9.4.0.0^2,7]pentadeca-1(11),2(7),3,5,12,14-hexaene-13-carbonitrile] |
| > 7.00 | CCN1C(=O)N(c2c(F)cc(NCCNC3CCOCC3)cc2F)c2cc(Cl)ccc2-c2cc(F)cnc21 [1-19, 13-chloro-10-[2,6-difluoro-4-({2-[(oxan-4-yl)amino]ethyl}amino)phenyl]-8-ethyl-4-fluoro-6,8,10-triazatricyclo[9.4.0.0^2,7]pentadeca-1(11),2(7),3,5,12,14-hexaen-9-one] |
| > 7.00 | CCN1C(=O)N(c2c(F)cc(NCCNC)cc2F)c2c(ccc(Cl)c2F)-c2cc(Cl)cnc21 [3-9, 4,13-dichloro-10-(2,6-difluoro-4-{[2-(methylamino)ethyl]amino}phenyl)-8-ethyl-12-fluoro-6,8,10-triazatricyclo[9.4.0.0^2,7]pentadeca-1(11),2(7),3,5,12,14-hexaen-9-one] |
| > 7.00 | CCN1C(=O)N(c2c(F)cc(NCCNCC(N)CO)cc2F)c2cc(C#N)ccc2-c2cc(Cl)cnc21 (stereo not drawn) [1-225, 10-[4-({2-[(2-amino-3-hydroxypropyl)amino]ethyl}amino)-2,6-difluorophenyl]-4-chloro-8-ethyl-9-oxo-6,8,10-triazatricyclo[9.4.0.0^2,7]pentadeca-1(11),2(7),3,5,12,14-hexaene-13-carbonitrile] |
| > 7.00 | CCN1C(=O)N(c2c(F)cc(NCCN[C@@H]3CC[C@@H]3O)cc2F)c2cc(C#N)ccc2-c2cc(Cl)cnc21 [1-177, 4-chloro-10-{2,6-difluoro-4-[(2-{[(1R,2S)-2-hydroxycyclobutyl]amino}ethyl)amino]phenyl}-8-ethyl-9-oxo-6,8,10-triazatricyclo[9.4.0.0^2,7]pentadeca-1(11),2(7),3,5,12,14-hexaene-13-carbonitrile] |
| > 7.00 | CCN1C(=O)N(c2c(F)cc(NCCNCCOCCO)cc2F)c2cc(C#N)ccc2-c2cc(Cl)cnc21 [1-181, 4-chloro-10-{2,6-difluoro-4-[(2-{[2-(2-hydroxyethoxy)ethyl]amino}ethyl)amino]phenyl}-8-ethyl-9-oxo-6,8,10-triazatricyclo[9.4.0.0^2,7]pentadeca-1(11),2(7),3,5,12,14-hexaene-13-carbonitrile] |
